# Source: patent US20230165906A1, “COMPOSITIONS AND METHODS FOR USING TRANSPLANTED MICROGLIA AS A VEHICLE FOR WIDESPREAD DELIVERY OF CELLS AND OTHER BIOLOGIC AGENTS TO THE BRAIN” (Albert Einstein College of Medicine, priority 2020, published 2023)
# Key:
# host microglia = assay: Pharmacological ablation of host microglia in vivo (Iba1 staining); settings: PLX5622 given to mice via chow for 7 days prior to transplantation
# From the text: For pharmacological ablation of host microglia, PLX5622 (Plexxikon Inc.), a drug that inhibits CSF1R, was given to the mice via chow for 7 days prior to transplantation. This treatment kills approximately 90% of host microglia (FIG. 3). PLX5622 is a blood-brain-barrier permeable drug in clinical trials. Two days before transplantation, PLX5622 treatment was stopped to avoid potentially killing donor cells. […]. Thus, with daily injection of tamoxifen, donor microglia outcompete host microglia for repopulation.
# [1] = tested on: cultured human primary microglia; assay: Screening of human microglia for resistance to PLX5622-induced cell death; format: cell-based; settings: for resistance to PLX5622-mediated cell ablation: mutant CSF1R expressed in cultured human primary microglia via retrovirus infection
# From the text: (§1) FIGS. 5A-I show screening of human and mouse microglia for resistance to PLX5622. Human microglia (5A) are normally susceptible to CSF1R antagonist PLX5622-induced cell death (5B). […] Similarly, mouse microglia (5G) are normally susceptible to CSF1R antagonist-induced cell death (5H).
# Although dispersion of mouse microglia was achieved using the protocol described in Example 2, continued genetic ablation of host microglia after transplantation of donor microglia cannot likely be used in a clinical setting. Therefore, to achieve dispersion of microglia independent of any genetic manipulations, a novel method to make microglia resistant to ablation by a CSF1R inhibitor such as PLX5622 was developed. Based on the mechanism of action of PLX5622 (antagonizing the critical CSF1R receptor), mutant forms of CSF1R that are constitutively active and potentially convey resistance to PLX5622 were screened (FIG. 5). […] Mutant CSF1Rs were expressed in human donor microglia via retrovirus infection. Such PLX5622-resistant microglia can then be transplanted to hosts in which endogenous microglia are continuously being depleted pharmacologically with PLX5622 post transplantation to allow donor microglia to outcompete residual endogenous microglia for repopulation. We are currently testing resistance of microglia expressing CSFIR^L301S and others to PLX5622 ablation in vivo.
# mouse microglia = assay: Screening of mouse microglia for resistance to PLX5622-induced cell death; format: cell-based; settings: no mutant CSF1R
# From the text: as §1
Compound,host microglia killed (host microglia),"susceptibility to CSF1R antagonist PLX5622-induced cell death ([1]; human microglia, no mutant CSF1R)",susceptibility to CSF1R antagonist-induced cell death (mouse microglia),resistance to PLX5622-mediated cell ablation [1]
"COc1ncc(F)cc1CNc1ccc(Cc2c[nH]c3ncc(C)cc23)c(F)n1 [PLX5622, 6-fluoro-N-[(5-fluoro-2-methoxypyridin-3-yl)methyl]-5-[(5-methyl-1H-pyrrolo[2,3-b]pyridin-3-yl)methyl]pyridin-2-amine]",approximately 90%,susceptible,susceptible,–
CSF1R^L301S: constitutively active gain-of-function mutant CSF1R expressed in donor microglia,–,–,–,high resistance
CSR1R^Y571D: constitutively active gain-of-function mutant CSF1R expressed in donor microglia,–,–,–,high resistance
CSR1R^Y969F: constitutively active gain-of-function mutant CSF1R expressed in donor microglia,–,–,–,high resistance
